# US20100273748A1, “ANTIMICROBIAL THERAPY” (priority 2006, published 2010)
# Experiments:
# cathelicidin = assay: qPCR of cathelicidin mRNA in cultured keratinocytes; assay type: cell-based, human
# Description: (§1) Cell culture and stimuli. Human keratinocytes were grown in serum-free EpiLife® cell culture media (Cascade Biologics; Portland, Oreg.) containing 0.06 mM Ca2+ and 1× EpiLife® defined growth supplement (EDGS) at 37° C. under standard tissue culture conditions. Stock cultures were maintained for up to five passages in this media with the addition of 50 U/mL penicillin and 50 μg/mL streptomycin. HaCaT keratinocytes were cultured in DMEM (Sigma, St. Louis, Mo.) with 10% FCS. Cells at 50-70% confluence were stimulated in fresh medium after preincubation with 1,25(OH)2 vitamin D3 (1,25D3; 0.1-100 nM, 4-24 h; Sigma). Alternatively, NHEK were stimulated in the presence of 1,25D3 (0.1-100 nM). Stimuli included TLR2,6 ligands Malp-2 (0.001-0.5 μg/ml; Alexis Biochemicals, Carlsbad, Calif.), FSL-1 (1-2 μg/ml, Invivogen, San Diego, Calif.) and zymosan (50 μg/ml; Invivogen), as well as flagellin (50 ng/ml; Alexis), LPS (1 μg/ml; Sigma), lipoteichoic acid (LTA; 10 μg/ml; Sigma), 19 kDA lipopeptide (10 μg/ml, a kind gift from S. Krutzik, Division of Dermatology, UCLA), CpG DNA (10 μg/ml; Sigma), Ca2+ (1.7 mM), LPS (1 μg/ml; Sigma), TNFα (20 ng/ml; Chemicon Temecula, Calif.) and TGFβ1 (0.1-1 μg/ml; R&D Systems, Minneapolis, Minn.). A TLR2 blocking antibody (αTLR2; clone TL2.1, 5 μg/ml, eBioscience, San Diego, Calif.) was utilized to investigate the role of TLR2 signaling. Furthermore, keratinocytes were pretreated with a vitamin D receptor antagonist (VDR-antagonist ZK159222 Schering AG; 10^-7M) or the CYP inhibitor itraconazole (ITRA; 10^-7M) before stimulation with TGFβ in the presence of 25OH vitamin D3 (25D3, 10 nM, Sigma).
# (§2) Real-time RT-PCR (qPCR). RNA was extracted from cells, epidermal constructs or tissue using Trizol® and 1 μg RNA was reverse transcribed using iScript® (BioRad, Hercules, Calif.). Expression of cathelicidin and GAPDH was analysed by real-time RT-PCR. Predeveloped Taqman® assay probes (ABI, Foster City, Calif.) were used for the analyses of the expression of CYP24A1 (24-hydroxylase), CYP27B1 (1α-hydroxylase), CD14, CD36, TLR1, TLR2, TLR4, TLR6 and murine CD14. All analyses were performed in triplicate from 2-5 independent experiments in an ABI Prism® 7000 Sequence Detection System. Fold induction relative to the vehicle treated control in in vitro experiments was calculated using the comparative Ct method, where ΔΔCt is ΔCt(stimulant)-ΔCt(vehicle), ΔCt is Ct(gene)-Ct(GAPDH) and Ct is the cycle at which an arbitrary detection threshold is crossed. For quantification of transcript abundance in tissue samples target gene expression was normalized to GAPDH and compared to non-treated or non-injured skin.
# CD14 = assay: qPCR of CD14 mRNA in cultured keratinocytes; assay type: cell-based, human; settings: for CD14 mRNA expression: 24 hours
# Description: as §1, §2
# TLR2 = assay: qPCR of TLR2 mRNA in cultured keratinocytes; assay type: cell-based, human; settings: for TLR2 mRNA expression: 24 hours
# Description: as §1, §2
# [1] = system: Staphylococcus aureus mprF; assay: Radial diffusion assay; assay type: cell-based; settings: LL-37 incubated in sweat, 37° C., 6 hr
# Description: Sweat collection and processing. Sweat was collected on paper tissues (Kimwipes, Kimberly-Clark, Ga.) from healthy volunteers after exercise. After collection, 20 ml of sweat was centrifuged at 2000 g for 15 min. at 4° C., filtered through a […] (Acrodisc syringe filter, 0.2 mm, low protein binding, Fisher scientific, Tustin, Calif.), and frozen at −80° C. For some experiments sweat was lyophilized to dryness, then suspended in 400 μl of distilled water (DW: cell culture grade, endotoxin free, GibcoBRL, Grand island, NY). For analysis of LL37 processing by sweat, 1.6 nmol of LL-37 synthetic peptide was incubated in 50 ml of sweat for 0, 1, 6, 24 hrs at 37° C. or 4° C. In some experiments proteinase inhibitors including; mixed protease inhibitor cocktail (1tab/10 ml, Roche, Indianapolis, Ind.), […] Bestatin, 10 mg/ml E-64, 10 mg/ml Aprotinin, (Sigma, St Louis, Mo.); 100 mM AEBSF, 100 mM Neutrophil elastase inhibitor (NEI) or 100 mM leukocyte elastase inhibitor (LEI) (Calbiochem, San Diego, Calif.) were added during incubation. After incubation, 2 ml was assayed by radial diffusion assay to determine antibacterial activity. For analysis by HPLC 32 nmoles LL-37 was incubated in 100u1. To control for potential contamination from paper tissues, parallel processing was done on tissues soaked in phosphate-buffered saline (PBS:137 mM NaCl, 2.7 mM KCL, 4.3 mM Na2HPO4-H2O, 1.4 mM KH2PO4, pH 7.4). No antimicrobial activity was detectable in these preparations. Protein concentrations were evaluated by BCA assay (protein assay reagent, Pierce, Rockford, Ill.) or Bradford protein assay (Bio-Rad, Hercules, Calif.) according to manufacture's instructions. Human tissue and blood collection was approved by the UCSD Human Research Protection Program.
# Antimicrobial assays. For screening of antimicrobial activity of HPLC fractions, radial diffusion assay was used. Lyophilized HPLC fractions were dissolved in DW (GibcoBRL, Grand Island, N.Y.), and tested against Staphylococcus aureus mprF. Thin plates (1 mm) of 1% agarose in 0.5% tryptone containing approximately 1×10^6 cells/ml of S. aureus mprF were used. 1 mm wells were punched in the plates and […] of samples dissolved in tissue culture grade sterile water were loaded in each well.
# acetylated histone H4 = assay: Histone H4 acetylation in keratinocytes (immunofluorescence, Western blot); assay type: cell-based, human; settings: NHEK stimulated with butyrate or TLR ligand
# Description: Panel a; Immunofluorescence staining of acetylated histone H4 protein in NHEK treated with HDACi in the presence or absence of 1,25D3. […] Panel b: Western blot of acetylated histone 4 from keratinocytes treated with the HDACi butyrate or TLR agonists. […] Bar=30 μM.
# The abundance of acetylated histone was directly measured to confirm the inhibitory effects of butyrate and TSA on HDACs. […] To determine if changes in histone acetylation occur upon stimulation of keratinocytes with TLR ligands NHEK were stimulated with different TLR ligands and histone acetylation was assessed.
# Staphylococcus aureus = assay: Bacterial growth inhibition (turbidity OD600) with or without carbonate; assay type: cell-based; settings: for increase of LL-37 antimicrobial activity by carbonate containing compound: medium with 32 μM LL-37, pH 7.4, KHCO3 and Na2CO3 at 50 mM
# S. aureus DmprF = assay: Antimicrobial activity of keratinocyte lysates (bacterial growth, OD600); assay type: cell-based, Staphylococcus aureus; settings: versus unstimulated keratinocytes
# Description: Panel a: NHEKs were stimulated with 1,25D3 (10^−9-10^−7 M) in the presence of the HDAC inhibitor butyrate (BUT; 2 mM) for 24 hours. mRNA abundance was determined by real-time qPCR for cathelicidin and glyceraldehyde-3-phosphate dehydrogenase and normalized to vehicle-treated controls. […] Data shown are means (7SD) of the results from a single stimulation experiment performed in triplicates and are representative of at least three independent experiments (**P<0.01; ***P<0.001; two-way analysis of variance). Panel b: The HDAC inhibitor TSA (200 ng ml^−1) induces cathelicidin in the presence of 1,25D3 (10^−8M). Expression of cathelicidin is dependent on a functional VDR, as pretreatment with the VDR antagonist ZK159222 (10^−7 M) inhibits induction of cathelicidin with BUT (2 mM) in the presence of 1,25D3 (10^−8 M) after 24 hours. Expression of cathelicidin was determined by qPCR as described in Panel a. (*P<0.05; Student's t-test). Panel c: Increased transcript correlates with enhanced cathelicidin protein expression after HDAC inhibitor and 1,25D3 stimulation. NHEKs grown on chamber slides were stimulated with the vehicle, 1,25D3 (10^−8M), BUT (2 mM), or the combination for 24 hours. Cells were stained with a polyclonal anti-LL-37 antibody (followed by an FITC-coupled secondary antibody) and nuclei detected with 4,6-diamidino-2-phenylindole (Bar=30 μM). […] NHEKs were stimulated with 1,25D3 (10^−8M) in combination with the HDAC inhibitor BUT (2 mM) for 24 hours, cells harvested and cell lysates co-incubated with S. aureus DmprF, and bacterial growth monitored over time to determine antimicrobial activity. Media not containing cell lysates or containing cell lysates from unstimulated cells were used as controls.
# [2] = system: wild-type S. aureus (clinical isolate); assay: Radial diffusion assay; assay type: cell-based
# [3] = system: enteroinvasive E. coli 029; assay: Radial diffusion assay; assay type: cell-based
# C. albicans = assay: Liquid assay, minimum fungicide concentration; assay type: cell-based, Candida albicans
# Description: Action against the C. albicans was determined in Dixon medium (0.6% Peptone, 4% Malt Extract, 1% Glucose, 0.1% Ox Bile, 1% Tween-80) in sterile 96-well microtiter plates (Corning Inc., Corning, N.Y.) at a final volume of 50 ml. […] Microtiter plates were incubated at 37° C. for 24 h with peptides, then plated on Dixon agar to determine the MFC (minimum fungicide concentration).
# [4] = 25D3 (10 nM) or TGF (1 μg/ml) alone
# [5] = 25D3 (10 nM) together with TGF (1 μg/ml)
# [6] = pretreatment with antagonist 10^−7M
# [7] = radial diffusion and solution assay
molecule,measurement,setting,value
"C=C1CC[C@H](O)C/C1=C/C=C1\CCC[C@]2(C)[C@@H]([C@H](C)CCCC(C)(C)O)CC[C@@H]12 [25D3, 25OH vitamin D3]",cathelicidin mRNA expression,"cathelicidin; 25D3 (10 nM) or TGF (1 μg/ml) alone, 24 hours",Neither 25D3 nor TGF alone affected expression
same,cathelicidin mRNA expression,"cathelicidin; 25D3 (10 nM) together with TGF (1 μg/ml), 24 hours",simultaneous addition induced
same,CD14 mRNA expression,CD14; [4],Neither 25D3 nor TGF alone affected expression
same,CD14 mRNA expression,CD14; [5],simultaneous addition induced
same,TLR2 mRNA expression,TLR2; [4],Neither 25D3 nor TGF alone affected expression
same,TLR2 mRNA expression,TLR2; [5],simultaneous addition induced
NCCc1ccc(S(=O)(=O)F)cc1 [AEBSF],blocking of the gain in LL-37 antimicrobial activity in sweat by protease inhibitor,[1],most effective in blocking the increase in antimicrobial activity
CCCc1nc2c(N)nc3ccccc3c2s1 [CL075],acetylation of histone H4,acetylated histone H4,did not change histone acetylation
CC(C)Cn1cnc2c(N)nc3ccccc3c21 [Imiquimod],acetylation of histone H4,acetylated histone H4,did not change histone acetylation
O=C([O-])O.[K+] [KHCO3],increase of LL-37 antimicrobial activity by carbonate containing compound,Staphylococcus aureus,also increased antimicrobial activity
O=C([O-])[O-].[Na+].[Na+] [Na2CO3],increase of LL-37 antimicrobial activity by carbonate containing compound,Staphylococcus aureus,also increased antimicrobial activity
CC(/C=C/C(=O)NO)=C\[C@@H](C)C(=O)c1ccc(N(C)C)cc1 [Trichostatin A],"effect of HDAC inhibitor on 1,25D3 induced cathelicidin","cathelicidin; TSA 200 ng ml^−1 with 1,25D3 (10^−8M)","significantly increased 1,25D3 induced cathelicidin"
C=C1/C(=C\C=C2/CCC[C@]3(C)[C@@H]([C@H](C)/C=C/[C@@H](O)C4(C(=O)OCCCC)CC4)CC[C@@H]23)C[C@@H](O)C[C@@H]1O [VAZ],"effect of VDR antagonist on cathelicidin induction by HDAC inhibitor plus 1,25D3","cathelicidin; ZK159222 10^−7 M, BUT 2 mM, 1,25D3 10^−8 M, 24 hours",decreased the capacity of the HDAC inhibitor to increase cathelicidin
same,block of cathelicidin induction by TGF plus 25D3,cathelicidin; [6],blocked this effect
same,block of CD14 induction by TGF plus 25D3,CD14; [6],blocked this effect
same,block of TLR2 induction by TGF plus 25D3,TLR2; [6],blocked this effect
C=C1CC[C@H](O)C/C1=C/C=C1\CCC[C@]2(C)[C@@H]([C@H](C)CCCC(C)C)CC[C@@H]12 [Vitamin D3],expression of cathelicidin,cathelicidin; normal human keratinocytes and HaCat cell line,induced the expression of cathelicidin
same,antimicrobial activity of stimulated keratinocytes against Staphalococcus aureus,S. aureus DmprF,enhanced antimicrobial activity
Aprotinin,blocking of the gain in LL-37 antimicrobial activity in sweat by protease inhibitor,[1],most effective in blocking the increase in antimicrobial activity
FSL-1,"cathelicidin induction by TLR2,6 ligand","cathelicidin; in the presence of 1,25D3 (100 nM)",capable of inducing cathelicidin
Human Beta Defensin-2,enhancement of peptide activity by 50 mM NaHCO3 (EF),"Staphylococcus aureus; 20% TSB, 10% FBS, 1 mM NaH2PO4, 150 mM NaCl, pH 7.4",enhanced
"KRIVQRIKDFLRNLVPRTES [KR-20, 20 amino acid cathelicidin derivative generated from LL-37 in sweat]","Radial Diffusion Assay, minimal inhibitory concentration (MIC), S. aureus (wt)",[2],4 μm
same,"Radial Diffusion Assay, minimal inhibitory concentration (MIC), E. coli (O29))",[3],4 μm
same,fungicidal activity against Candida albicans compared to LL-37,C. albicans,increased fungicidal activity
"PR-39: porcine cathelicidin antimicrobial peptide (RRRPRPPYLPRPRPPPFFPPRLPPRIPPGFPPRFPPRFP; UniProt P80054 131-169, looked up)",change of minimal inhibitory concentration (MIC) by NaHCO3,"Staphylococcus aureus; 20% TSB, 1 mM NaH2PO4, with or without 50 mM NaHCO3, pH 7.4",greatly reduced
Poly(I:C),acetylation of histone H4,acetylated histone H4,did not change histone acetylation
"RKSKEKIGKEFKRIVQRIKDFLRNLVPRTES [RK-31, cathelicidin peptide generated from LL-37 in sweat]",action against wild-type S. aureus compared to LL-37,[2]; [7],greatly increased action
same,action against E. coli compared to LL-37,[3]; [7],greatly increased action
same,fungicidal activity against Candida albicans compared to LL-37,C. albicans,increased fungicidal activity
flagellin,cathelicidin expression in response to TLR ligand,"cathelicidin; keratinocytes pretreated with 1,25D3 0.1 nM 24 hours, then TLR ligand 24 hours",not to other TLR agonists
same,acetylation of histone H4,acetylated histone H4,did not change histone acetylation
